Drawing on patent US8354436B2 (4SC Discovery GmbH, priority 2011, dated 2013), this text covers IC50 for 25 compounds.

Common to all, as to assay type: cell-based
Holding throughout (conditions): 48 hours

The subject of one assay is IL-17FF. In words: IL-17FF production by PHA-stimulated human PBMC (human IL-17F ELI-Pair). Summed up:
(§1)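 Healthy-donor PBMC (1×10^5 cells/well) were activated with 2 μg/ml PHA and cultured with test compounds for 48 hours; cytokines were then quantified in supernatants by the respective immunoassay. Screening used 10, 1, 0.1 and 0.01 μM; IC50 came from semilogarithmic compound titration.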

Another assay deals with IFN-γ. The assay can be described thus: IFN-γ production by PHA-stimulated human PBMC (OptEIA human IFN-g ELISA). In outline:
as §1
(In an ELISA, binding on a coated surface is turned into a signal by an enzyme label.)

In assay [1] the test system is PBMC from healthy human donors. In words: T cell proliferation assay (PHA-stimulated human PBMC, BrdU ELISA). Summed up: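 Healthy-donor PBMC isolated on Ficoll, seeded at 1×10⁵ cells/well in RPMI with 10% dialysed FCS, stimulated with 2 μg/ml PHA in presence of test compound. Proliferation read after 48 hours by BrdU-incorporation ELISA.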
For orientation: Incorporation of labelled thymidine or its analogues reports DNA synthesis.

Where [2] appears, read: PHA-stimulated human PBMC, column B, read-out: IC50 (IL-17FF).
Where [3] appears, read: PHA-stimulated human PBMC, column C, read-out: IC50 (IFNγ).
The mark [4] stands for this setting: PHA-stimulated human PBMC, column D, read-out: IC50 (Tcell proliferation).
The mark [5] stands for this setting: human PBMC, 2 μg/ml PHA, read-out: B: IC50 (IL-17FF).
Where [6] appears, read: human PBMC, 2 μg/ml PHA, read-out: C: IC50 (IFNγ).
Setting [7] is: human PBMC, 2 μg/ml PHA, read-out: D: IC50 (Tcell proliferation).

SMILES strings stand for the structures. Read-outs that look alike come from different tables or passages of the source.

`CCOC(=O)c1c(-c2onc(-c3c(F)cccc3Cl)c2C(=O)OC)cnn1-c1cccc(C#N)c1` [Example I-13, methyl 3-(2-chloro-6-fluorophenyl)-5-(1-(3-cyanophenyl)-5-(ethoxycarbonyl)-1H-pyrazol-4-yl)isoxazole-4-carboxylate]: the IC50 (in the assay with IL-17FF (setting [2]); in the assay on IFN-γ (setting [3]); in assay [1] (setting [4])) was 0.1 to 1 µM each time.
As to `O=C(c1c(-c2ccccc2Cl)noc1-c1cnn(-c2cccc(Cl)c2)c1C(F)(F)F)N1CCCO1` [IB-62, (3-(2-chlorophenyl)-5-(1-(3-chlorophenyl)-5-(trifluoromethyl)-1H-pyrazol-4-yl)isoxazol-4-yl)(isoxazolidin-2-yl)methanone], the IC50 (in the assay with IL-17FF (setting [2]); with IFN-γ (setting [3]); in assay [1] (setting [4])) was 0.01 to 0.1 µM throughout.
In the case of `CNC(=O)c1c(-c2c(F)cccc2Cl)noc1-c1cnn(-c2cccnc2)c1C(F)(F)F` [IB-55, 3-(2-chloro-6-fluorophenyl)-N-methyl-5-(1-(pyridin-3-yl)-5-(trifluoromethyl)-1H-pyrazol-4-yl)isoxazole-4-carboxamide], the IC50 (in the assay on IL-17FF (setting [2]); in the assay with IFN-γ (setting [3]); in assay [1] (setting [4])) was 1 to 10 µM each time.
On to `O=C(c1c(-c2c(F)cccc2Cl)noc1-c1cnn(-c2ccccc2F)c1C(F)(F)F)N1CCCO1` [IB-52, (3-(2-chloro-6-fluorophenyl)-5-(1-(2-fluorophenyl)-5-(trifluoromethyl)-1H-pyrazol-4-yl)isoxazol-4-yl)(isoxazolidin-2-yl)methanone], for which the IC50 (with IL-17FF (setting [2]); in the assay on IFN-γ (setting [3]); in assay [1] (setting [4])) was 1 to 10 µM throughout.
In the case of `CCOC(=O)c1c(-c2c(F)cccc2Cl)noc1-c1cnn(-c2ccccc2N)c1C(F)(F)F` [IB-98, ethyl 5-(1-(2-aminophenyl)-5-(trifluoromethyl)-1H-pyrazol-4-yl)-3-(2-chloro-6-fluorophenyl)isoxazole-4-carboxylate], the IC50 (in the assay on IL-17FF (setting [2]); in the assay with IFN-γ (setting [3]); in assay [1] (setting [4])) was 0.01 to 0.1 µM each time.
For the compound `CCOC(=O)c1c(-c2c(F)cccc2Cl)noc1-c1cnn(-c2cccc(C(N)=O)c2)c1C(F)(F)F` [IB-100, ethyl 5-(1-(3-carbamoylphenyl)-5-(trifluoromethyl)-1H-pyrazol-4-yl)-3-(2-chloro-6-fluorophenyl)isoxazole-4-carboxylate], the IC50 (with IL-17FF (setting [2]); in the assay on IFN-γ (setting [3]); in assay [1] (setting [4])) was 1 to 10 µM each time.
On to `COC(=O)c1c(-c2c(F)cccc2Cl)noc1-c1cnn(-c2ccccc2F)c1` [Example I-89, Methyl 3-(2-chloro-6-fluorophenyl)-5-[1-(2-fluorophenyl)-1H-pyrazol-4-yl]isoxazole-4-carboxylate], for which the IC50 was in the range of 0.01 to 0.1 µM in the assay with IL-17FF (setting [2]), 0.1 to 1 µM in the assay with IFN-γ (setting [3]) and 0.1 to 1 µM in assay [1] (setting [4]).
Regarding `CCOC(=O)c1c(-c2c(Cl)cccc2Cl)noc1-c1cnn(-c2cccc(Cl)c2)c1C(F)(F)F` [IB-45, ethyl 5-(1-(3-chlorophenyl)-5-(trifluoromethyl)-1H-pyrazol-4-yl)-3-(2,6-dichlorophenyl)-isoxazole-4-carboxylate], the IC50 (in the assay with IL-17FF (setting [2]); in the assay with IFN-γ (setting [3]); in assay [1] (setting [4])) was less than 0.01 µM in each case.
Regarding `COC(=O)c1c(-c2ccc(Cl)cc2Cl)noc1-c1cnn(-c2cccc(F)c2)c1C(F)(F)F` [Example I-111, methyl 3-(2,4-dichlorophenyl)-5-(1-(3-fluorophenyl)-5-(trifluoromethyl)-1H-pyrazol-4-yl)isoxazole-4-carboxylate], the IC50 lay within 1 to 10 µM with IL-17FF (setting [2]), 1 to 10 µM in the assay on IFN-γ (setting [3]) and 0.1 to 1 µM in assay [1] (setting [4]).
Consider `COC(=O)c1c(-c2c(F)cccc2Cl)noc1-c1cnn(-c2cccc(F)c2)c1` [IB-21, methyl 3-(2-chloro-6-fluorophenyl)-5-(1-(3-fluorophenyl)-1H-pyrazol-4-yl)isoxazole-4-carboxylate], for which the IC50 (in the assay on IL-17FF (setting [2]); with IFN-γ (setting [3]); in assay [1] (setting [4])) was 0.1 to 1 µM in each case.
As to `CCOC(=O)c1c(-c2ccc(Cl)cc2Cl)noc1-c1cnn(-c2cccc(Cl)c2)c1C(F)(F)F` [IB-46, ethyl 5-(1-(3-chlorophenyl)-5-(trifluoromethyl)-1H-pyrazol-4-yl)-3-(2,4-dichlorophenyl)-isoxazole-4-carboxylate], the IC50 (with IL-17FF (setting [2]); in the assay with IFN-γ (setting [3]); in assay [1] (setting [4])) was 0.1 to 1 µM throughout.
`Fc1cccc(Cl)c1-c1noc(-c2cnn(-c3cccnc3)c2C(F)(F)F)c1-c1nnco1` [Example B-15, 2-(3-(2-chloro-6-fluorophenyl)-5-(1-(pyridin-3-yl)-5-(trifluoromethyl)-1H-pyrazol-4-yl)isoxazol-4-yl)-1,3,4-oxadiazole]: the IC50 (in the assay on IL-17FF (setting [5]); in the assay on IFN-γ (setting [6]); in assay [1] (setting [7])) was 0.1 to 1 µM in each case.
Consider `CCOC(=O)c1c(-c2ccncc2F)noc1-c1cnn(-c2ccccn2)c1C(F)(F)F` [IB-8], for which the IC50 (with IL-17FF (setting [2]); with IFN-γ (setting [3]); in assay [1] (setting [4])) was 1 to 10 µM in each case.
Turning to `Fc1cccc(Cl)c1-c1noc(-c2cnn(-c3ccccc3)c2C(F)(F)F)c1Br` [Example I-145, 4-bromo-3-(2-chloro-6-fluorophenyl)-5-(1-phenyl-5-(trifluoromethyl)-1H-pyrazol-4-yl)isoxazole], the IC50 in the assay on IL-17FF (setting [2]) was 0.01 to 0.1 µM; with IFN-γ (setting [3]), less than 0.01 µM; in assay [1] (setting [4]) it was 0.01 to 0.1 µM.
As to `Fc1ccccc1-n1ncc(-c2onc(-c3c(F)cccc3Cl)c2-c2nccs2)c1C(F)(F)F` [Example B-30, 3-(2-chloro-6-fluorophenyl)-5-(1-(2-fluorophenyl)-5-(trifluoromethyl)-1H-pyrazol-4-yl)-4-(thiazol-2-yl)isoxazole], the IC50 (with IL-17FF (setting [5]); with IFN-γ (setting [6]); in assay [1] (setting [7])) was 0.01 to 0.1 µM each time.
With `Fc1cccc(-n2ncc(-c3onc(-c4c(F)cccc4Cl)c3-c3nnn[nH]3)c2C(F)(F)F)c1` [Example 2, 3-(2-chloro-6-fluorophenyl)-5-(1-(3-fluorophenyl)-5-(trifluoromethyl)-1H-pyrazol-4-yl)-4-(1H-tetrazol-5-yl)isoxazole], the IC50 (in the assay on IL-17FF (setting [5]); with IFN-γ (setting [6]); in assay [1] (setting [7])) was 1 to 10 µM throughout.
Regarding `CC(C)OC(=O)c1c(-c2c(F)cccc2Cl)noc1-c1cnn(-c2ccccc2F)c1C(F)(F)F` [Example I-43, i-Propyl 3-(2-chloro-6-fluorophenyl)-5-[1-(2-fluorophenyl)-5-(trifluoromethyl)-1H-pyrazol-4-yl]isoxazole-4-carboxylate], the IC50 is 0.1 to 1 µM in the assay with IL-17FF (setting [2]), 0.01 to 0.1 µM in the assay on IFN-γ (setting [3]) and 0.01 to 0.1 µM in assay [1] (setting [4]).
For the compound `CON(C)C(=O)c1c(-c2c(F)cccc2Cl)noc1-c1cnn(-c2ccccc2F)c1C(F)(F)F` [IB-53, 3-(2-chloro-6-fluorophenyl)-5-(1-(2-fluorophenyl)-5-(trifluoromethyl)-1H-pyrazol-4-yl)-N-methoxy-N-methylisoxazole-4-carboxamide], the IC50 (in the assay with IL-17FF (setting [2]); in the assay on IFN-γ (setting [3]); in assay [1] (setting [4])) was 0.1 to 1 µM throughout.
As to `NC(=O)c1c(-c2c(F)cccc2Cl)noc1-c1cnn(-c2cccc(Cl)c2)c1C(F)(F)F` [Example I-121, 3-(2-chloro-6-fluorophenyl)-5-(1-(3-chlorophenyl)-5-(trifluoromethyl)-1H-pyrazol-4-yl)isoxazole-4-carboxamide], the IC50 (in the assay with IL-17FF (setting [2]); in the assay on IFN-γ (setting [3]); in assay [1] (setting [4])) was 1 to 10 µM in each case.
Take `CCOC(=O)c1c(-c2ccncc2F)noc1-c1cnn(-c2cccc(Cl)c2)c1C(F)(F)F` [IB-4, ethyl 5-(1-(3-chlorophenyl)-5-(trifluoromethyl)-1H-pyrazol-4-yl)-3-(3-fluoropyridin-4-yl)isoxazole-4-carboxylate]: the IC50 was in the range of 0.1 to 1 µM in the assay on IL-17FF (setting [2]), 0.1 to 1 µM in the assay on IFN-γ (setting [3]) and 1 to 10 µM in assay [1] (setting [4]).
Take `CCOC(=O)c1c(-c2c(F)cccc2Cl)noc1-c1cnn(-c2ccccc2NC(C)=O)c1C(F)(F)F` [IB-1]: the IC50 in the assay on IL-17FF (setting [2]) lay in the range of 1 to 10 µM; with IFN-γ (setting [3]), 0.1 to 1 µM; in assay [1] (setting [4]) it was 1 to 10 µM.
Consider `Cc1nnc(-c2c(-c3c(F)cccc3Cl)noc2-c2cnn(-c3ccccc3Cl)c2C(F)(F)F)s1` [Example B-20, 3-(2-chloro-6-fluorophenyl)-5-(1-(2-chlorophenyl)-5-(trifluoromethyl)-1H-pyrazol-4-yl)-4-(5-methyl-1,3,4-thiadiazol-2-yl)isoxazole], for which the IC50 (in the assay on IL-17FF (setting [5]); with IFN-γ (setting [6]); in assay [1] (setting [7])) was 0.1 to 1 µM throughout.
On to `Cc1csc(-c2c(-c3c(F)cccc3Cl)noc2-c2cnn(-c3cccc(Cl)c3)c2C(F)(F)F)n1` [Example 4], for which the IC50 (in the assay on IL-17FF (setting [5]); with IFN-γ (setting [6]); in assay [1] (setting [7])) was less than 0.01 µM each time.
In the case of `O=C(c1c(-c2c(F)cccc2Cl)noc1-c1cnn(-c2cccnc2)c1C(F)(F)F)N1CCCO1` [IB-54, (3-(2-chloro-6-fluorophenyl)-5-(1-(pyridin-3-yl)-5-(trifluoromethyl)-1H-pyrazol-4-yl)isoxazol-4-yl)(isoxazolidin-2-yl)methanone], the IC50 (in the assay on IL-17FF (setting [2]); in the assay on IFN-γ (setting [3]); in assay [1] (setting [4])) was 1 to 10 µM in each case.
Consider `NC(=S)c1c(-c2c(F)cccc2Cl)noc1-c1cnn(-c2ccccc2Cl)c1C(F)(F)F` [IB-101, 3-(2-chloro-6-fluorophenyl)-5-(1-(2-chlorophenyl)-5-(trifluoromethyl)-1H-pyrazol-4-yl)isoxazole-4-carbothioamide], for which the IC50 (with IL-17FF (setting [2]); with IFN-γ (setting [3]); in assay [1] (setting [4])) was 1 to 10 µM throughout.
